Laboratory results taken from article PMC11768584 (Viruses, 2025).
pEC50: −log10 of the molar value. Where two headings read alike, the source gives them in different places.

Experiments:
rLCMV/GFP-P2A-NP [1] = test: organism not typed; type: cell-based, LCMV; settings: for pEC50: A549, read-out: EC50, LCMV multiplication (GFP expression)
mammarenavirus = settings: cited from earlier work
rLCMV/GFP-P2A-NP [2] = type: cell-based, LCMV
in vitro [3] = settings: human
[4] = tested on: r3JUNVCandid GFP/GFP (r3Can-GFP); type: cell-based, JUNV
[5] = cited from earlier work
rLCMV/GFP-P2A-NP [6] = tested on: rLCMV/GFP-P2A-NP; parameters: species or system LCMV
[7] = target: T1, LCMV GPC (GP2-mediated fusion) (Lymphocytic choriomeningitis virus, UniProt P09991); type: cell-based
T1 construct: expressed in transfected cells; host or cells: HEK293T
T1 sequence (P09991 266-498 limits assumed): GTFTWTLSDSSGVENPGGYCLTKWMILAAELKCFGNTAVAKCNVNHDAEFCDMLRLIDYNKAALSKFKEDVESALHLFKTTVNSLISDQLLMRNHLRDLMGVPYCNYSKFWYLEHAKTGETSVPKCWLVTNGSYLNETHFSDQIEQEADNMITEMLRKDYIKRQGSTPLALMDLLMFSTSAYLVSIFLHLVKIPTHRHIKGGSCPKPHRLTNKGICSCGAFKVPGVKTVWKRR
T1 sequence (P09991 59-265 limits assumed): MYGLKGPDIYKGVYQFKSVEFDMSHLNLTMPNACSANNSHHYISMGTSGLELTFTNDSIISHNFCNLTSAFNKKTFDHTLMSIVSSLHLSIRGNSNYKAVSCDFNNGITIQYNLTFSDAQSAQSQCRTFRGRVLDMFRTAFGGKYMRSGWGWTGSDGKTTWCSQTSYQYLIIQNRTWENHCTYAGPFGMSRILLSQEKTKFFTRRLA
T1 sequence (P09991 2-58 limits assumed): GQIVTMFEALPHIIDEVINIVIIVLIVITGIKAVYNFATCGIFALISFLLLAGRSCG

in vitro [8] = settings: African green monkey, CC50 (CellTiter 96 Aqueous One)
LCMV vRNP = target: T2, LCMV vRNP (Lymphocytic choriomeningitis virus, UniProt P09992+P14240); type: cell-based
T2 construct: expressed in transfected cells; host or cells: HEK293T
T2 sequence (P09992 whole entry): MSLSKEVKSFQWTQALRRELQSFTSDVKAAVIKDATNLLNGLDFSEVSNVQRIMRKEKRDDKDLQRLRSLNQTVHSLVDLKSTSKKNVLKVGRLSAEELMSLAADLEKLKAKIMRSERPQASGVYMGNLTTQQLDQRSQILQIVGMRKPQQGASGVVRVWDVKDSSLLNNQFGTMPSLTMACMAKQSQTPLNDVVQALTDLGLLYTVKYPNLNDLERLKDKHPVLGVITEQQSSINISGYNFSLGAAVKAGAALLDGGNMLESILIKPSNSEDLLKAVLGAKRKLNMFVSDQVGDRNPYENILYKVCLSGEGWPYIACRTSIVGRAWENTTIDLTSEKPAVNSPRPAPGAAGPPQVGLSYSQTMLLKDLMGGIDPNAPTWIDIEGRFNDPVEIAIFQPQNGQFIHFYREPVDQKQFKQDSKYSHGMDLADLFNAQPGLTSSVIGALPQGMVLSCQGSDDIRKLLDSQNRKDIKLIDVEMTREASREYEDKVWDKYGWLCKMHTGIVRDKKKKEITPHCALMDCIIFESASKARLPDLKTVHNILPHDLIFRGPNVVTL
T2 sequence (P14240 whole entry): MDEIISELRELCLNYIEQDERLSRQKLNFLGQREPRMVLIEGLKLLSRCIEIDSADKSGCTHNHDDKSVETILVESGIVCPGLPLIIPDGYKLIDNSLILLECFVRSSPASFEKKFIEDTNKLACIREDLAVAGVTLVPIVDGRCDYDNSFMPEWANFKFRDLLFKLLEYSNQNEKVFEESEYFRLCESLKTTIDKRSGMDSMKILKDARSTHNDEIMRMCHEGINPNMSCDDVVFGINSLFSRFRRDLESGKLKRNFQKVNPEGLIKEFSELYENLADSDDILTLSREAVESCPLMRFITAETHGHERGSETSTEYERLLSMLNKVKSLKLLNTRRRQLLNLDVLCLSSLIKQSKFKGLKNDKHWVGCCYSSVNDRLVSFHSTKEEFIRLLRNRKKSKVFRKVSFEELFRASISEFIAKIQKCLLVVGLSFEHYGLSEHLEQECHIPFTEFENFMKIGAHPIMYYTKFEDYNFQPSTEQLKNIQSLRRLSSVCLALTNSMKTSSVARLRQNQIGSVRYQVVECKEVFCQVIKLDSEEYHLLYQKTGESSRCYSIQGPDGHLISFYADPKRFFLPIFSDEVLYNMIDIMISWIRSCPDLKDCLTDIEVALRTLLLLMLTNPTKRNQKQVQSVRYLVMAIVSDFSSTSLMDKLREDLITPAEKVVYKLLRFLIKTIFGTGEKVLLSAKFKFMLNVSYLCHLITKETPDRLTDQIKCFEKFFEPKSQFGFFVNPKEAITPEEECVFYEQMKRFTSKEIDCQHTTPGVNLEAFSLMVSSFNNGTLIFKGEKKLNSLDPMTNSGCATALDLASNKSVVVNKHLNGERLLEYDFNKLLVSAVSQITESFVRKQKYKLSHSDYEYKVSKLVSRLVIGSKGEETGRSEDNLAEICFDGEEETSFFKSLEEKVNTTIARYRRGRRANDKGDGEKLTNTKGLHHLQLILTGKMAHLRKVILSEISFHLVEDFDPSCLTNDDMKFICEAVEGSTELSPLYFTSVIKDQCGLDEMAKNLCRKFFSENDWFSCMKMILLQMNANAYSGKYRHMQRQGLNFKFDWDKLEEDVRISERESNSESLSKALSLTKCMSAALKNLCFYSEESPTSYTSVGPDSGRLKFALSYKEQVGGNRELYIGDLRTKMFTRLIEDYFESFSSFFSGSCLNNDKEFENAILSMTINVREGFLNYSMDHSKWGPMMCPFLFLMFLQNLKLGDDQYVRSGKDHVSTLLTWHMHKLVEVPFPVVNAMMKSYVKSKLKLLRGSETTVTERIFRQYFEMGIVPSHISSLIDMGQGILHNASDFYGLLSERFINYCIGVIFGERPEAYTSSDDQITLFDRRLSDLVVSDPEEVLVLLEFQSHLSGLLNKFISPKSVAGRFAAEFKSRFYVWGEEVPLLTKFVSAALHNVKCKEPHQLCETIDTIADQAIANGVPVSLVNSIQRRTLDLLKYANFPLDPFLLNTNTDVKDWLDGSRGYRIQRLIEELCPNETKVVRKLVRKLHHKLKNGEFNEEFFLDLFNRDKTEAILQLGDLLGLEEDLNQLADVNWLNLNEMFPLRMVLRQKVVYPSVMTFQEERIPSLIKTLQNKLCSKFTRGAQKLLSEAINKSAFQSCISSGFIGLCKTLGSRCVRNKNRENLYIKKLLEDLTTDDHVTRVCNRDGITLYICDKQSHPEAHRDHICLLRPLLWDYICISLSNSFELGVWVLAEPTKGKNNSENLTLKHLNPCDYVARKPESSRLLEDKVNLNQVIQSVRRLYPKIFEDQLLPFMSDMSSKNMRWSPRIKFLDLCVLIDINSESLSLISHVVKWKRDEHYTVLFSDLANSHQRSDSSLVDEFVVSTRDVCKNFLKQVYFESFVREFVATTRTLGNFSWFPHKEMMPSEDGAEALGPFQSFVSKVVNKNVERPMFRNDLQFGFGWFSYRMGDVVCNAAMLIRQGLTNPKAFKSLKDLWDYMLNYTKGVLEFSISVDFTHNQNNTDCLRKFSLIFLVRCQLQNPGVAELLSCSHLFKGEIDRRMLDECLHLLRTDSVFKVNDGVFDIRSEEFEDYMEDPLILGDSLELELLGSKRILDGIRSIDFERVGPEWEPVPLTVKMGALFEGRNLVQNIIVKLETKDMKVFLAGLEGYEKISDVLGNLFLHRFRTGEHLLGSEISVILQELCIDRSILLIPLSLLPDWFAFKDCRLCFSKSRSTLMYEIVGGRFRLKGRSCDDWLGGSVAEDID

LASV vRNP = LASV vRNP (UniProt P13699+Q6GWS6); type: cell-based
rLCMV/GFP-P2A-NP [9] = test: organism not typed; type: cell-based, LCMV; settings: for pEC50: Hec50, read-out: EC50, LCMV multiplication (GFP expression)

Structure (SMILES)	Anti-LCMV activity of calcium channel blockers (in words) (rLCMV/GFP-P2A-NP [1])	CC50 (in vitro [3]) [µM]	CC50 (in vitro [8]) [µM]	Inhibition of LCMV MG activity (in words) (LCMV vRNP)	Reduction in LASV MG-directed ZsGreen expression levels vs vehicle control (LASV vRNP)	Toxicity on Vero cells (in words) (Vero cells)	Inhibitory activity on LCMV multiplication (in words) (rLCMV/GFP-P2A-NP [9])	pEC50 (rLCMV/GFP-P2A-NP [9])	also measured
COC(=O)C1=C(C)NC(C)=C(C(=O)OC)C1c1ccccc1[N+](=O)[O-] [Nifidipine, nifedipine]	did not exhibit significant anti-LCMV activity								pEC50 (rLCMV/GFP-P2A-NP [1]): < 4.00
Clc1ccc(Cn2c(CN3CCCC3)nc3ccccc32)cc1 [clemizole]									Anti-mammarenavirus activity (in words) (mammarenavirus): does not exhibit anti-mammarenavirus activity
Fc1ccc(C(c2ccc(F)cc2)N2CCN(C/C=C/c3ccccc3)CC2)cc1 [FLN, Flunarizine]		74.3	> 100	strongest inhibitory effect	~ 50%				Levels of viral (LCMV NP) RNA determined by RT-qPCR (rLCMV/GFP-P2A-NP [2]): reduced; Virus cell propagation (GFP imaging) (rLCMV/GFP-P2A-NP [2]): reduced virus cell propagation; Reduction in r3Can-GFP (JUNV) virus peak titers vs VC [4]: > 1 log; Bound to plasma proteins [5]: More than 99%; Virucidal activity: effect on virion infectivity (rLCMV/GFP-P2A-NP [6]): did not significantly affect virion infectivity; GP2-mediated pH-dependent fusion (syncytium formation) [7]: inhibition of GP2-mediated fusion; Inhibition of LCMV MG vRNP-directed reporter gene (GFP) expression (LCMV vRNP): ~ 75%
CN1CC(=O)N2[C@H](c3ccc4c(c3)OCO4)c3[nH]c4ccccc4c3C[C@@H]2C1=O [TAD, tadalafil]			> 100	minimal inhibitory activities	~ 12%	minimal toxicity	very poor inhibitory activity	< 4.00	
OC(c1cc(C(F)(F)F)nc2c(C(F)(F)F)cccc12)C1CCCCN1 (stereo not drawn) [MEF, mefloquine]			29.1	minimal inhibitory activities	5%			4.81	CC50 (Vero cells; African green monkey): 27.3 µM; selective index (SI) (rLCMV/GFP-P2A-NP [9]): 1.87
NCC1(CC(=O)O)CCCCC1 [Gabapentin, gabapentin]	did not exhibit significant anti-LCMV activity	> 100							EC50, LCMV multiplication (GFP expression) (rLCMV/GFP-P2A-NP [1]): >Flat
COc1ccc(CCN(C)CCCC(C#N)(c2ccc(OC)c(OC)c2)C(C)C)cc1OC (stereo not drawn) [Verapamil, verapamil]	did not exhibit significant anti-LCMV activity	> 100							pEC50 (rLCMV/GFP-P2A-NP [1]): < 4.00
C[C@@H]1C[C@H]2[C@@H]3CCC4=CC(=O)C=C[C@]4(C)[C@@]3(F)[C@@H](O)C[C@]2(C)[C@@]1(O)C(=O)CO [DEX, dexamethasone]			55.7	minimal inhibitory activities	~ 28%	minimal toxicity	very poor inhibitory activity		
C=C1CC[C@H](O)C/C1=C/C=C1\CCC[C@]2(C)[C@@H]([C@H](C)/C=C/[C@H](C)C(C)C)CC[C@@H]12 [Vit D, ergocalciferol]			> 100	minimal inhibitory activities	~ 18%	minimal toxicity	very poor inhibitory activity	< 4.00	
[Cl][Ni][Cl] [Nickel Chloride, nickel chloride]	did not exhibit significant anti-LCMV activity								CC50 (A549 cells): > 100 µM
